Results on one compound are retold here after the NIST ThermoML archive (doi:10.1021/je0600552).

A short description of data set [1]: Molar enthalpy of transition or fusion. The settings on record: Crystal; DSC.
The conditions of data set [2]: Crystal; DTA.

Numbers after ± are expanded uncertainties.

As to `Cc1ccc2[nH]c3c(c2c1)CCCC3=O` [1-keto-1,2,3,4-tetrahydro-6-methylcarbazole], the “Molar enthalpy of transition or fusion” value in data set [1] is 6.43 ± 0.143 kcal/mol. In addition, the Normal melting temperature in data set [2] was found to be 195.30 ± 0.9 °C.
